Entries after “also recorded” stand apart in the source; their conditions may differ.
Columns and labels:
[1] = test system: experimental autoimmune encephalomyelitis (EAE) in DA rats; experiment: EAE in DA rats treated with MBP peptides in mannosylated SUV liposomes (Example 10); type: in vivo
Protocol: All animal studies were carried out in animal facilities of Assaf Harofeh Medical Center (Zerifin, Israel) using standard approved practices for animal care. Induction of EAE was performed in 8-9 weeks Dark Agouti (DA) female rats. Briefly, rats were injected intradermally at the base of the tail with a total volume of 200 μl of inoculum, containing […] of MBP(63-81) (ANASPEC), in saline mixed (1:1) with CFA, (incomplete Freund's adjuvant (IFA), Sigma), and 1 mg MT (strain H37 RA; Difco Laboratories, Detroit, Mich.). Animals developing symptoms of MS were included to the study. Rats were treated with different liposomes formulations (Table 3), copaxone, or placebo (vehicle) under similar conditions for 6 days. All formulations were administrated by one subcutaneous injection per day. Animals were followed up till day 28th post EAE induction. Clinical signs score was performed daily during all study periods. Score gradation was the following: 0—Normal 1—tail weakness, 2—hind leg weakness or paralysis, 3—hind leg paralysis, dragging hind limbs, 4—complete paralysis, unable to move, 5—death.
Liposomes were assembled from a mixture of egg phosphatidylcholine (PC) and one molar percent mannosylated DOG (ManDOG) (Durova OM, supra). Assembly of SUV liposomes was performed as illustrated in FIG. 3: (i) formation of irregular lipid layers during evaporation of organic solvent, followed by re-hydration leading to the multi-layer multilamellar vesicle (MLV) liposomes formation; (ii) high-pressure homogenization resulting in formation of empty SUV; (iii) freeze drying of SUV liposomes with peptides—at this stage peptides are located between collapsed SUV liposomes; and (iv) encapsulation of peptides during second re-hydration into the SUV liposomes with an average diameter of approximately 60-100 nm, containing 1.0% mannose residues on their surface. Four formulations were used for this study: each B cell epitope MBP peptide (MBP1, MBP2, and MBP3) individually and a 1:1:1 mixture (by mass) of all three peptides.
Small unilamellar vesicles (SUV) were prepared from egg phosphatidylcholine (PC) and mannosylated DOG (Espuelas S. et al., Synthesis of an amphiphilic tetraantennary mannosyl conjugate and incorporation into liposome carriers, 2003 Bioorg Med Chem Lett., August 4; 13(15):2557-60, the contents of which are hereby incorporated by reference in their entirety for all purposes) (1:100 molar ratio) by high pressure homogenization (Durova OM, supra). Briefly, lipid mixture (100 mg/ml) in CHCl3 was dried under vacuum, further re-suspended in Milli-Q water to a final lipid concentration 50 mg/ml, followed by high-pressure homogenization (20,000 psi). Resulting SUV were mixed with peptides (lipid to peptide ratio 330:1) together with excess sugar (lactose to lipid ratio 3:1) with subsequent freeze-drying. Following rehydration under controlled conditions, the resulting SUV liposomes were washed by centrifugation to remove non-incorporated materials. The washed pellets were re-suspended in PBS to the required dose volume. Peptide incorporation was estimated on the basis of reversed-phase HPLC using linear gradient of acetonitrile applied on C18 column. The z-average diameter and zeta potential of liposomes were measured on a Brookhaven ZetaPlus zetasizer at 25° C. by diluting […] of the dispersion to the required volume with 1 mM PBS or appropriate media.
To test the therapeutic potential of the four formulations, DA rates presenting with induced EAE were subcutaneously injected with one of the four mannosylated liposomal formulations, copaxone (positive control), free (un-encapsulated) MBPI peptide (negative control), and empty mannosylated liposomes (vehicle control; Table 3).
Treatment of each rat was initiated at the first sign of EAE clinical manifestation. […]

EAE-induced DA rats = experiment: EAE-induced DA rat model, paralysis score and mortality (DA-EAE-28-05, Example 14); type: in vivo; conditions: versus water control (Group 1); days 1-4 post-treatment; daily s.c., 6 total; n=6
Protocol: Each of the four MBP peptide formulations being evaluated were provided as lyophilized powders and stored at 4° C. Each formulation was rehydrated in water for injection according to Table 13. Copaxone (Teva LTD) was diluted with Saline to a final concentration of 720 μg/mL. Each subject animal was administered the test formulation for 6 consecutive days by subcutaneous injection.
8-9 week old Dark Agouti (DA) female rats (Harlan Laboratories, Inc.), weighing between 110 and 145 grams were used as the test subjects. The health status of the animals used in this study was examined on arrival. Only animals in good health were acclimatized to laboratory conditions and were used in the study. Animals were provided food ad libitum and free access to drinking water. Animals were housed in a controlled environment at between 20° C. and 24° C. with a relative humidity of 30-70% and a 12 hr light/12 hr dark cycle. Animals were randomly assigned to their respective test group. […]
The rats were evaluated up daily starting 24 hours after immunization. […] The animals were maintained and evaluated until day 28th post EAE-induction. […]
Animals were observed individually and clinical signs were recorded once daily during all study periods. […] The body weight of each animals was determined daily during all study periods.

glatiramer acetate [copaxone]
mean disease score course (FIG. 4) ([1]; 6 daily s.c. injections from first clinical sign): EAE amelioration rate similar to treatment with the MBP1/2/3 SUV formulation; also recorded: did not fully recover from EAE after the initial attack
Mortality ([1]; one s.c. injection per day, 6 injections, deaths/N): 0/12
Median Cumulative Disease Score ([1]; one s.c. injection per day, 6 injections, doses per Table 3): 18.5
Median Maximal Disease Score (IQR) ([1]; one s.c. injection per day, 6 injections, doses per Table 3, score 0-5): 2 (1.25)^1
paralysis score (EAE-induced DA rats): non-statistically significant difference (tendency)

Reference: patent US20160175249A1, “Liposomes Containing Oligopeptide Fragments of Myelin Basic Protein, a Pharmaceutical Composition and a Method for Treatment of Multiple Sclerosis” (LIPOXEN TECHNOLOGIES LIMITED, priority 2009, published 2016)
